Laboratory results from US20040156869A1, “2-substituted quinazolin-4-ylamine analogues” (Neurogen Corporation, priority 2002, published 2004).
Like-named read-outs stand apart in the source and are kept apart here.

Target: human capsaicin receptor (VR1) (Homo sapiens, UniProt Q8NER1)
Test: Capsaicin receptor binding assay ([3H]RTX competition, VR1-transfected HEK293 membranes)

Chain of human capsaicin receptor (VR1) (Q8NER1 whole entry): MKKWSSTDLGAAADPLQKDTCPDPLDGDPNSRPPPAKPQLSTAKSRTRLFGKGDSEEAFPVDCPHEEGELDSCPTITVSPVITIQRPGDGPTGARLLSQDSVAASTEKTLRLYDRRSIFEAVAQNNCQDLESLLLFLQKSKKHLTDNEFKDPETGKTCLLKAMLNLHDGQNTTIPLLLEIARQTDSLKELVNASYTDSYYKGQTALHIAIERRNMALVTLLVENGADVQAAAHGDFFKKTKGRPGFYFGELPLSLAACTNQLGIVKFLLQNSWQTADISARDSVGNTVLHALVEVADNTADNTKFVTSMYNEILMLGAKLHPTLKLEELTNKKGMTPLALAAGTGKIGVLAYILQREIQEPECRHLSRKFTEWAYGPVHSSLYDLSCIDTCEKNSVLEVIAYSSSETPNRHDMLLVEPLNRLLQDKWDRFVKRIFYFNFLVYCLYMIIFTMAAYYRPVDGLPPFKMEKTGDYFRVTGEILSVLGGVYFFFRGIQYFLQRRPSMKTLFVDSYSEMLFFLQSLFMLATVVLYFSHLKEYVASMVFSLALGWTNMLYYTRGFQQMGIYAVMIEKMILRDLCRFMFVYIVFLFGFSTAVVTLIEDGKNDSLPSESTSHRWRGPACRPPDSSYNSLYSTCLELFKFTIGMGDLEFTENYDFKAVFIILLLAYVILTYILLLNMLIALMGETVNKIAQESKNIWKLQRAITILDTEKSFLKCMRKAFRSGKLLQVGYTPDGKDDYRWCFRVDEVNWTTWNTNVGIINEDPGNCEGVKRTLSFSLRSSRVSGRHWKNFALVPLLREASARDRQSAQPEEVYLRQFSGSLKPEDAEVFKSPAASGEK

Structure (SMILES)	Ki [µM]	Ki (Table III, capsaicin receptor binding) [µM]
Cc1cc(Nc2nc(COCC(C)C)nc3nc(-c4ncccc4Cl)ccc23)ccc1F [Compound 269, [7-(3-Chloro-pyridin-2-yl)-2-isobutoxymethyl-pyrido[2,3-d]pyrimidin-4-yl]-(4-fluoro-3-methyl-phenyl)-amine]	< 1	–
CC1(C)CN(Cc2nc(Nc3ccc(C(F)(F)F)cc3)c3ccc(-c4ncccc4Cl)cc3n2)CCO1 [Compound 740, [7-(3-Chloro-pyridin-2-yl)-2-(2,2-dimethyl-morpholin-4-ylmethyl)-quinazolin-4-yl]-(4-trifluoromethyl-phenyl)-amine]	< 1	–
CCCNC(=O)c1nc(Nc2ccc(C(F)(F)F)cc2)c2ccc(-c3ncccc3C(F)(F)F)nc2n1 [Compound 452, 4-(4-Trifluoromethyl-phenylamino)-7-(3-trifluoromethyl-pyridin-2-yl)-pyrido[2,3-d]pyrimidine-2-carboxylic acid propylamide]	< 1	–
CCCCCN(CCCCC)CCc1nc(Nc2ccc(C(F)(F)F)cc2)c2ccc(-c3ncccc3C(F)(F)F)cc2n1 [Compound 428, [2-Dipentylaminoethyl-7-(3-trifluoromethyl-pyridin-2-yl)-quinazolin-4-yl]-(4-trifluoromethyl-phenyl)-amine]	< 1	–
O=S1(=O)CCCCN1Cc1nc(Nc2ccc(C(F)(F)F)cc2)c2ccc(-c3ncccc3C(F)(F)F)cc2n1 [Compound 756, [2-(1,1-Dioxo-1λ^6-[1,2]thiazinan-2-ylmethyl)-7-(3-trifluoromethyl-pyridin-2-yl)-quinazolin-4-yl]-(4-trifluorornethyl-phenyl)-amine]	< 1	–
CC1CN(Cc2nc(Nc3ccc(S(=O)(=O)C(F)(F)F)cc3)c3ccc(-c4ncccc4C(F)(F)F)cc3n2)CC(C)O1 (centres unmarked) [Compound 581, [2-(2,6-Dimethyl-morpholin-4-ylmethyl)-7-(3-trifluoromethyl-pyridin-2-yl)-quinazolin-4-yl]-(4-trifluoromethanesulfonyl-phenyl)-amine]	< 1	–
CCCN(CCC)Cc1nc(Nc2ccc(C(F)(F)F)nc2)c2ccc(-c3ncccc3C(F)(F)F)cc2n1 [Compound 557, [2-Dipropylaminomethyl-7-(3-trifluoromethyl-pyridin-2-yl)-quinazolin-4-yl]-(6-trifluoromethyl-pyridin-3-yl)-amine]	–	< 1
Cc1cccnc1-c1ccc2c(Nc3ccc(C(C)(C)C)cc3)nc(CO)nc2n1 [Compound 204, [4-(4-tert-Butyl-phenylamino)-7-(3-methyl-pyridin-2-yl)-pyrido[2,3d]pyrimidin-2-yl]-methanol]	< 1	–
CCN(CCc1nc(Nc2ccc(C(F)(F)F)cc2)c2ccc(-c3ncccc3C(F)(F)F)cc2n1)C(C)C [Compound 414, [2-[(Isopropyl-ethyl-amino)-ethyl]-7-(3-trifluoromethyl-pyridin-2-yl)-quinazolin-4-yl]-(4-trifluoromethyl-phenyl)-amine]	< 1	–
CCCC(=O)c1ccc(Nc2nc(COCC(C)C)nc3nc(-c4ncccc4Cl)ccc23)cc1 [Compound 280, 1-{4-[7-(3-Chloro-pyridin-2-yl)-2-isobutoxymethyl-pyrido[2,3-d]pyrimidin-4-ylamino]-phenyl}-butan-1-one]	< 1	–
CCOCc1nc(Nc2ccc(C3(C#N)CCC3)cc2)c2ccc(-c3ncccc3Cl)nc2n1 [Compound 150, 1-{4-[7-(3-Chloro-pyridin-2-yl)-2-ethoxymethyl-pyrido[2,3-d]pyrimidin-4-ylamino]-phenyl}-cyclobutanecarbonitrile]	< 1	–
CN(C)CCCOCc1nc(Nc2ccc(C(F)(F)F)cc2)c2ccc(-c3ncccc3C(F)(F)F)cc2n1 [Compound 89, [2-(3-Dimethylamino-propoxymethyl)-7-(3-trifluoromethyl-pyridin-2-yl)-quinazolin-4-yl]-(4-trifluoromethyl-phenyl)-amine]	< 1	–
COCC(C)(C)c1ccc(Nc2nc(COCc3ccccc3)nc3cc(-c4ncccc4C(F)(F)F)ccc23)cc1 [Compound 42, [2-Benzyloxymethyl-7-(3-trifluoromethyl-pyridin-2-yl)-quinazolin-4-yl]-[4-(2-methoxy-1,1-dimethyl-ethyl)-phenyl]-amine]	< 1	–
CN(C)CCCOCc1nc(Nc2ccc(C(C)(C)C)cc2)c2ccc(-c3ncccc3C(F)(F)F)cc2n1 [Compound 116, (4-tert-Butyl-phenyl)-[2-(3-dimethylamino-propoxymethyl)-7-(3-trifluoromethyl-pyridin-2-yl)-quinazolin-4-yl]-amine]	< 1	–
NC(=O)C1CCN(Cc2nc(Nc3ccc(C(F)(F)F)cc3)c3ccc(-c4ncccc4C(F)(F)F)cc3n2)CC1 [Compound 500, 1-[4-(4-Trifluoromethyl-phenylamino)-7-(3-trifluoromethyl-pyridin-2-yl)-quinazolin-2-ylmethyl]-piperidine-4-carboxylic acid amide]	< 1	–
CCCC(=O)c1ccc(Nc2nc(COC)nc3cc(-c4ncccc4C(F)(F)F)cnc23)cc1 [Compound 57, 1-{4-[2-Methoxymethyl-7-(3-trifluoromethyl-pyridin-2-yl)-pyrido[3,2-d]pyrimidin-4-ylamino]-phenyl}-butan-1-one]	< 1	–
O=C(NCCN1CCCC1)c1nc(Nc2ccc(C(F)(F)F)cc2)c2ccc(-c3ncccc3C(F)(F)F)cc2n1 [Compound 763, 4-(4-Trifluoromethyl-phenylamino)-7-(3-trifluoromethyl-pyridin-2-yl)-quinazoline-2-carboxylic acid (2-pyrrolidin-1-yl-ethyl)-amide]	< 1	–

Further lines, results first:

Ki [µM]	Ki (Table III, capsaicin receptor binding) [µM]	Structure (SMILES)
< 1	–	COCCN(CCOC)C(=O)c1nc(Nc2ccc(C(F)(F)F)cc2)c2ccc(-c3ncccc3C(F)(F)F)nc2n1 [Compound 469, 4-(4-Trifluoromethyl-phenylamino)-7-(3-trifluoromethyl-pyridin-2-yl)-pyrido[2,3-d]pyrimidine-2-carboxylic acid bis-(2-methoxy-ethyl)-amide]
< 1	–	COCCc1nc(Nc2ccc(C(F)(F)F)cc2)c2ccc(-c3ncccc3Cl)nc2n1 [Compound 85, [7-(3-Chloro-pyridin-2-yl)-2-(2-methoxy-ethyl)-pyrido[2,3-d]pyrimidin-4-yl]-(4-trifluoromethyl-phenyl)-amine]
< 1	–	CC1CC(C)CN(CCc2nc(Nc3ccc(C(F)(F)F)cc3)c3ccc(-c4ncccc4C(F)(F)F)cc3n2)C1 (centres unmarked) [Compound 430, [2-(3,5-Dimethyl-piperidin-1-ylethyl)-7-(3-trifluoromethyl-pyridin-2-yl)-quinazolin-4-yl]-(4-trifluoromethyl-phenyl)-amine]
< 1	–	CC1CN(CCCc2nc(Nc3ccc(C(F)(F)F)nc3)c3ccc(-c4ncccc4C(F)(F)F)cc3n2)CC(C)O1 (centres unmarked) [Compound 544, [2-[3-(2,6-Dimethyl-morpholin-4-yl)-propyl]-7-(3-trifluoromethyl-pyridin-2-yl)-quinazolin-4-yl]-(6-trifluoromethyl-pyridin-3-yl)-amine]
< 1	–	Cc1cccnc1-c1ccc2c(Nc3ccc(C(F)(F)F)cc3)nc(CN3CC[C@H](CO)C3)nc2c1 [Compound 734, (S)-{1-[7-(3-Methyl-pyridin-2-yl)-4-(4-trifluoromethyl-phenylamino)-quinazolin-2-ylmethyl]-pyrrolidin-3-yl}-methanol]
< 1	–	C[C@H]1CN(Cc2nc(Nc3ccc(C(F)(F)F)cc3)c3ccc(-c4ncccc4C(F)(F)F)cc3n2)CCO1 [Compound 686, (S)-[2-(2-Methyl-morpholin-4-ylmethyl)-7-(3-trifluoromethyl-pyridin-2-yl)-quinazolin-4-yl]-(4-trifluoromethyl-phenyl)-amine]
< 1	–	COCc1nc(Nc2ccc(OC(F)(F)F)cc2)c2ccc(-c3ncccc3C(F)(F)F)nc2n1 [Compound 188, [2-Methoxymethyl-7-(3-trifluoromethyl-pyridin-2-yl)-pyrido[2,3-d]pyrimidin-4-yl]-(4-trifluoromethoxy-phenyl)-amine]
< 1	–	CC1CC(C)CN(Cc2nc(Nc3ccc(C(F)(F)F)nc3)c3ccc(-c4ncccc4C(F)(F)F)cc3n2)C1 (centres unmarked) [Compound 387, [2-(3,5-Dimethyl-piperidin-1-ylmethyl)-7-(3-trifluoromethyl-pyridin-2-y)-quinazolin-4-yl]-(6-trifluoromethyl-pyridin-3-yl)-amine]
< 1	–	CCOCc1nc(Nc2ccc(C(F)F)cc2)c2ccc(-c3ncccc3Cl)nc2n1 [Compound 244, [7-(3-Chloro-pyridin-2-yl)-2-ethoxymethyl-pyrido[2,3-d]pyrimidin-4-yl]-(4-difluoromethyl-phenyl)-amine]
< 1	–	CCN1CCC(c2nc(Nc3ccc(C(F)(F)F)cc3)c3ccc(-c4ncccc4C(F)(F)F)cc3n2)CC1 [Compound 689, [2-(1-Ethyl-piperidin-4-yl)-7-(3-trifluoromethyl-pyridin-2-yl)-quinazolin-4-yl]-(4-trifluoromethyl-phenyl)-amine]
< 1	–	CCOCc1nc(Nc2ccc(C(C)(C)C)cc2)c2ccc(-c3ncccc3Cl)cc2n1 [Compound 79, (4-tert-Butyl-phenyl)-[7-(3-chloro-pyridin-2-yl)-2-ethoxymethyl-quinazolin-4-yl]-amine]
< 1	–	CC(=O)c1ccccc1-c1ccc2c(Nc3ccc(C(F)(F)F)cc3)nc(CN3C[C@@H](C)O[C@@H](C)C3)nc2c1 [Compound 639, 1-{2-[2-(2,6-Dimethyl-morpholin-4-ylmethyl)-4-(4-trifluoromethyl-phenylamino)-quinazolin-7-yl]-phenyl}-ethanone (cis)]
< 1	–	CCCCCCN(C)Cc1nc(Nc2ccc(C(F)(F)F)cc2)c2ccc(-c3ncccc3C(F)(F)F)cc2n1 [Compound 336]
< 1	–	C[C@H]1CN(Cc2nc(Nc3ccc(C(C)(C)C)nc3)c3ccc(-c4ncccc4C(F)(F)F)cc3n2)C[C@H](C)O1 [Compound 609, (S,S)-(6-tert-Butyl-pyridin-3-yl)-[2-(2,6-dimethyl-morpholin-4-ylmethyl)-7-(3-trifluoromethyl-pyridin-2-yl)-quinazolin-4-yl]-amine]
< 1	–	COCc1nc(Nc2ccc(S(=O)(=O)C(F)(F)F)cc2)c2ccc(-c3ncccc3C)nc2n1 [Compound 159, [2-Methoxymethyl-7-(3-methyl-pyridin-2-yl)-pyrido[2,3-d]pyrimidin-4-yl]-(4-trifluoromethanesulfonyl-phenyl)-amine]
